Target: Serine/threonine-protein kinase ATR (Homo sapiens, UniProt Q13535)
Assay: Inhibition Assay: Compounds were screened for their ability to inhibit ATR kinase using a radioactive-phosphate incorporation assay. Assays were carried out in a mixture of 50 mM Tris/HCl (pH 7.5), 10 mM MgCl2 and 1 mM DTT. Final substrate concentrations were 10 Î¼M [Î³-33P]ATP (3mCi 33P ATP/mmol ATP, Perkin Elmer) and 800 Î¼M target peptide (ASELPASQPQPFSAKKK).Assays were carried out at 25° C. in the presence of 5 nM full-length ATR. An assay stock buffer solution was prepared containing all of the reagents listed above, with the exception of ATP and the test compound of interest. 13.5 Î¼L of the stock solution was placed in a 96 well plate followed by addition of 2 Î¼L of DMSO stock containing serial dilutions of the test compound (typically starting from a final concentration of 15 Î¼M with 3-fold serial dilutions) in duplicate (final DMSO concentration 7%). The plate was pre-incubated for 10 minutes at 25° C. and the reaction initiated by addition of 15 Î¼L [Î³-33P]ATP.

Sequence of Serine/threonine-protein kinase ATR (Q13535 whole entry): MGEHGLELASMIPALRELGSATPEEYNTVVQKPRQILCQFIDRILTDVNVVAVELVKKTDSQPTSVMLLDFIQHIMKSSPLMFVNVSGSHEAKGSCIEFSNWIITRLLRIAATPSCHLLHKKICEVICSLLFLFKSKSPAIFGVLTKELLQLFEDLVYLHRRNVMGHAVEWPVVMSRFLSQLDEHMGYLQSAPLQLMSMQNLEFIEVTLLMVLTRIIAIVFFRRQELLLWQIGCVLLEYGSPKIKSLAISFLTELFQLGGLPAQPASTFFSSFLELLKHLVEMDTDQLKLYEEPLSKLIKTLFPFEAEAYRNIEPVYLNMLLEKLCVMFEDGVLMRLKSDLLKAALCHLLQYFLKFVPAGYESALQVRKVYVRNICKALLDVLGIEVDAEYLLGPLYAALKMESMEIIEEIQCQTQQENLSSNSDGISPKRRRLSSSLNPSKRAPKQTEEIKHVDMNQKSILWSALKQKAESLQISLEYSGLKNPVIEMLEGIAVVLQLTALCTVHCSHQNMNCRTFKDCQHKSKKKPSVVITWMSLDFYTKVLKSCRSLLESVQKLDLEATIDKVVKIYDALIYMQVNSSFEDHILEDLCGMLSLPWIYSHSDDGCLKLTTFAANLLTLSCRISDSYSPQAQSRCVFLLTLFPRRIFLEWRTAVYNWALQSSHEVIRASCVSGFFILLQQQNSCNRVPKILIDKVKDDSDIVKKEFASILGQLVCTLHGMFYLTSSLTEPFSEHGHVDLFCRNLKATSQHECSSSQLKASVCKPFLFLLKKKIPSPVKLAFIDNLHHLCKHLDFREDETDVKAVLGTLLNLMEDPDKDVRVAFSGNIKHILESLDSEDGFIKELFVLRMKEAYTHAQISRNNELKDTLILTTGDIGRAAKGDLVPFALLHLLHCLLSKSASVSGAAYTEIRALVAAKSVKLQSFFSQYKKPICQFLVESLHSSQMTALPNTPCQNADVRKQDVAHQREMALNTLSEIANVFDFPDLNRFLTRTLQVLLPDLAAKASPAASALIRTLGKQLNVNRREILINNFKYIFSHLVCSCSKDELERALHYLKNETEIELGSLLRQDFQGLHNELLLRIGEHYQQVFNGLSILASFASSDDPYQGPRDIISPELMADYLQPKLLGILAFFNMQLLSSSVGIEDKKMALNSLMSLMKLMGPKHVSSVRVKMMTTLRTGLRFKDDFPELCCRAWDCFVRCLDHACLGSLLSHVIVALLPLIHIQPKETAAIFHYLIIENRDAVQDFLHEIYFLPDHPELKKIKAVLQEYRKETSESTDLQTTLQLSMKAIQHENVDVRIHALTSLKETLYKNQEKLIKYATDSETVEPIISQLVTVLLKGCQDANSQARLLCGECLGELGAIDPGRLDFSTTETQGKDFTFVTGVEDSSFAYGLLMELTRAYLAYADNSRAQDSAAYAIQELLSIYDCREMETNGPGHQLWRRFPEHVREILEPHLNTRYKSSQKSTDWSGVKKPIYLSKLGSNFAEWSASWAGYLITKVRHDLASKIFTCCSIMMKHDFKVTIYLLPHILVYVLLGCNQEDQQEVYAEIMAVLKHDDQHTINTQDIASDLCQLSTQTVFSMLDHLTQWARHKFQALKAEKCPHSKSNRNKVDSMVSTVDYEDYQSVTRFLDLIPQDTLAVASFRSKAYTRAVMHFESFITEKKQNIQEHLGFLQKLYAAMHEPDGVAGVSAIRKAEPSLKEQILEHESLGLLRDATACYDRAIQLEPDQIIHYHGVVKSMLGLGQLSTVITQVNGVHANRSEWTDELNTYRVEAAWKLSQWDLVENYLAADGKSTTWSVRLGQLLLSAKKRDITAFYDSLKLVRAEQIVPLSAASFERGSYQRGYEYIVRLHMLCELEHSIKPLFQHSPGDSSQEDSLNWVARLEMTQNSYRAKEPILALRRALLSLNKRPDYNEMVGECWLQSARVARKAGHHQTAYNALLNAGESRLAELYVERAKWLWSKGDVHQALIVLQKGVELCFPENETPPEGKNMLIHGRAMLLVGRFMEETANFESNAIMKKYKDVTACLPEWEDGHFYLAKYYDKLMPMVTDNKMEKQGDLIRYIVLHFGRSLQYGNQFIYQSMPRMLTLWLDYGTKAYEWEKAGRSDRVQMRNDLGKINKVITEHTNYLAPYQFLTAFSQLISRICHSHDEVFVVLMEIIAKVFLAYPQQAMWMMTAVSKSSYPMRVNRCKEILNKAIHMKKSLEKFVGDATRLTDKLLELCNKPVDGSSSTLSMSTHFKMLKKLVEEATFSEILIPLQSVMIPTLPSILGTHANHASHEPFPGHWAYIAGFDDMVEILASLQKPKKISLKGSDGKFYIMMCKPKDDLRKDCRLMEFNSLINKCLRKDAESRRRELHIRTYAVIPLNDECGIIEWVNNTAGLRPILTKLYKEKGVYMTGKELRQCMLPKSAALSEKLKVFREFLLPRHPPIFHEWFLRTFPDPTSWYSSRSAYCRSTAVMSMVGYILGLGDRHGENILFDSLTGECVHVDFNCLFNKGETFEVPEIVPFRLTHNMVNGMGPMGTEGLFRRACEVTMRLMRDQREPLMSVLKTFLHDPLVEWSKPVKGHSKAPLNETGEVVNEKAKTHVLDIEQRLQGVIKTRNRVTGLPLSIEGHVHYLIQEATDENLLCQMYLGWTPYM

Molecule `CNCc1ccc(C2=NOC(c3nc(-c4ccc(S(=O)(=O)C(C)C)cc4)cnc3N)C2)cc1` (stereo unspecified) has a Ki of 90 nM.
